Laboratory results taken from patent publication US10676429B2, “Sulfamoyl-arylamides and the use thereof as medicaments for the treatment of hepatitis B” (priority 2012, dated 2020).

Experiments:
HBV [1] = experiment: Anti-HBV activity in stable transfected HepG2.2.15 cell line (HBV DNA from secreted virions, realtime PCR); assay type: cell-based; settings: HepG2.2.15 cells, 6 days of treatment, secreted virion HBV DNA, read-out: HepG2 2.15 EC50
HBV [2] = experiment: Anti-HBV activity in HepG2.117 cell line (Tet-off, intracellular HBV DNA, realtime PCR); assay type: cell-based; settings: HepG2.117 cells, 3 days of treatment, intracellular HBV DNA, read-out: HepG2 117 EC50
HepG2 cells = experiment: Cytotoxicity in HepG2 cells, 4 days, Resazurin assay; settings: read-out: HepG2 4 days CC50; HepG2 cells, 4 days, Resazurin
[3] = as above; settings: human, HepG2 cells
[4] = Hepatitis B virus, HepG2.2.15, 144 h
[5] = Hepatitis B virus, HepG2.117, 72 h

Compound | EC50 (HBV [1]; [4]) | EC50 (HBV [2]; [5]) | CC50 (HepG2 cells) | EC50 (HBV [1]) | EC50 (HBV [2]) | CC50 at 4 days [3]
O=C(Nc1ccc(F)cc1)c1cccc(S(=O)(=O)N2CCCCC2)c1 [Compound 35] | 4500 nM | 2700 nM | 70400 nM | – | – | –
CC(=O)N1CCC(NS(=O)(=O)c2cccc(C(=O)Nc3ccc(F)cc3)c2)CC1 [Compound 39] | 6770 nM | 4680 nM | > 100000 nM | – | – | –
O=C(Nc1cccc(F)c1)c1cccc(S(=O)(=O)NC2CCCC2)c1 [Compound 77] | 270 nM | 430 nM | > 25000 nM | – | – | –
CCC(CC)NS(=O)(=O)c1cccc(C(=O)Nc2ccc(F)cc2)c1 [Compound 10] | 750 nM | 3630 nM | 40300 nM | – | – | –
CN(C)S(=O)(=O)c1cccc(C(=O)Nc2ccc(F)cc2)c1 [Compound 37] | 5020 nM | 2990 nM | > 100000 nM | – | – | –
Cc1cc(NC(=O)c2cccc(S(=O)(=O)NC3CCC(O)C3)c2)ccc1F (single isomer, unassigned) [Compound 145b, N-(4-fluoro-3-methyl-phenyl)-3-[[(1R,3S)-3-hydroxycyclopentyl]sulfamoyl]benzamide or N-(4-fluoro-3-methyl-phenyl)-3-[[(1S,3R)-3-hydroxycyclopentyl]sulfamoyl]benzamide] | – | – | > 25000 nM | 440 nM | 580 nM | –
O=C(Nc1ccc(F)cc1)c1cccc(S(=O)(=O)NC2CCOCC2)c1 [Compound 1] | 930 nM | 1670 nM | > 100000 nM | – | – | –
Cc1cc(NC(=O)c2cccc(S(=O)(=O)NC3CC(=O)N(C)C3)c2)ccc1F (racemic) [Compound 179b] | – | – | > 25000 nM | 1110 nM | 1840 nM | –
O=C(Nc1ccc(F)cc1)c1cccc(S(=O)(=O)NC2CCCCC2)c1 [Compound 6] | – | 580 nM | > 25000 nM | – | – | –
Cc1cc(NC(=O)c2cccc(S(=O)(=O)NC3CCC(O)C3)c2)ccc1F (single isomer, unassigned) [Compound 145d, N-(4-fluoro-3-methyl-phenyl)-3-[[(1S,3S)-3-hydroxycyclopentyl]-sulfamoyl]benzamide or N-(4-fluoro-3-methyl-phenyl)-3-[[(1R,3R)-3-hydroxycyclopentyl]sulfamoyl]benzamide] | – | – | > 25000 nM | 400 nM | 640 nM | –
Cc1c(F)ccc(NC(=O)c2cccc(S(=O)(=O)N[C@H]3CCOC3)c2)c1F [Compound 104] | 290 nM | 780 nM | > 25000 nM | – | – | –
Cc1cc(NC(=O)c2cccc(S(=O)(=O)N[C@H]3CCOC3)c2)c(F)cc1F [Compound 106] | 2220 nM | 3300 nM | > 25000 nM | – | – | –
CC(C)NS(=O)(=O)c1cccc(C(=O)Nc2ccc(F)c(C(C)C)c2)c1 [Compound 95] | 1400 nM | 2790 nM | – | – | – | > 25000 nM
CN(C)S(=O)(=O)c1ccc(F)c(C(=O)Nc2ccccc2)c1 [Compound 49] | 13400 nM | 9150 nM | – | – | – | > 100000 nM
Cc1cc(NC(=O)c2cccc(S(=O)(=O)NC3CC(O)C3)c2)ccc1F (centres unmarked) [Compound 184] | 150 nM | 400 nM | – | – | – | > 25000 nM
CC1(NS(=O)(=O)c2cccc(C(=O)Nc3ccc(F)c(CO)c3)c2)COC1 [Compound 111] | 4480 nM | 1480 nM | – | – | – | > 25000 nM
Cc1cc(NC(=O)c2cccc(S(=O)(=O)N[C@@H](C)C(F)(F)F)c2)ccc1F [Compound 226] | 270 nM | 1900 nM | – | – | – | > 25000 nM
Cc1cc(NC(=O)c2cccc(S(=O)(=O)N[C@H](C)C3CC3)c2)ccc1F [Compound 152] | < 100 nM | 570 nM | – | – | – | > 25000 nM
Cc1cc(NC(=O)c2cccc(S(=O)(=O)N[C@@H]3CCOC3)c2)ccc1F [Compound 129] | 350 nM | 780 nM | – | – | – | > 25000 nM
Cc1cc(NC(=O)c2cccc(S(=O)(=O)NC3CCN(C(=O)OC(C)(C)C)C3)c2)ccc1F (centres unmarked) [Compound 156] | 190 nM | 210 nM | – | – | – | > 25000 nM
Cc1cc(NC(=O)c2cccc(S(=O)(=O)N3CCC34COC4)c2)ccc1F [Compound 147] | 260 nM | 150 nM | – | – | – | > 25000 nM
O=C(Nc1ccc(F)c(C(F)F)c1)c1cccc(S(=O)(=O)N[C@H]2CCOC2)c1 [Compound 102] | 180 nM | 330 nM | – | – | – | > 25000 nM
Cc1cc(NC(=O)c2cc(F)cc(S(=O)(=O)NC(C)C)c2)ccc1F [Compound 240] | 400 nM | 2860 nM | – | – | – | > 25000 nM
CC[C@@H](C)NS(=O)(=O)c1cccc(C(=O)Nc2ccc(F)c(C)c2)c1 [Compound 98] | 100 nM | 310 nM | – | – | – | > 25000 nM
CC(C)NS(=O)(=O)c1cccc(C(=O)Nc2ccc(F)c(C(F)F)c2)c1 [Compound 96] | 100 nM | 290 nM | – | – | – | > 25000 nM
CC1(NS(=O)(=O)c2cccc(C(=O)Nc3ccc(F)c(Br)c3)c2)COC1 [Compound 160, N-(3-bromo-4-fluoro-phenyl)-3-[(3-methyloxetan-3-yl)sulfamoyl]benzamide] | 200 nM | 690 nM | – | – | – | > 25000 nM

Compound | EC50 (HBV [1]; [4]) | EC50 (HBV [2]; [5]) | CC50 (HepG2 cells) | EC50 (HBV [1]) | EC50 (HBV [2]) | CC50 at 4 days [3]
Cc1cc(NC(=O)c2cccc(S(=O)(=O)NC(C)c3cccnc3)c2)ccc1F (centres unmarked) [Compound 162] | 170 nM | 1260 nM | – | – | – | > 25000 nM
Cc1cc(NC(=O)c2cccc(S(=O)(=O)N[C@H]3C[C@@H](O)C3)c2)ccc1F [Compound 184b] | 300 nM | 330 nM | – | – | – | > 25000 nM
O=C(Nc1ccccc1)c1ccnc(S(=O)(=O)NC2CCCCC2)c1 [Compound 66] | 4270 nM | 14500 nM | – | – | – | > 100000 nM
Cc1cc(NC(=O)c2cccc(S(=O)(=O)N[C@H]3CCOC3)c2C)ccc1F [Compound 126] | 1380 nM | 890 nM | – | – | – | > 25000 nM
Cc1cc(NC(=O)c2cccc(S(=O)(=O)N[C@H](C)C(F)(F)F)c2)ccc1F [Compound 225] | 90 nM | 1340 nM | – | – | – | > 25000 nM
O=C(Nc1ccc(F)cc1)c1cc(S(=O)(=O)NC2CCCC2)ccc1F [Compound 53] | 360 nM | 440 nM | – | – | – | > 50000 nM
Cc1cc(NC(=O)c2cccc(S(=O)(=O)N[C@H]3c4ccccc4C[C@@H]3O)c2)ccc1F [Compound 176] | 620 nM | 560 nM | – | – | – | > 25000 nM
Cc1ccc(S(=O)(=O)NC2(C)COC2)cc1C(=O)Nc1ccc(F)c(C(F)F)c1 [Compound 113] | 150 nM | 180 nM | – | – | – | > 25000 nM
CCC(C)(C)NS(=O)(=O)c1cccc(C(=O)Nc2ccc(F)cc2)c1 [Compound 79] | 960 nM | 1690 nM | – | – | – | > 25000 nM
Cc1cc(NC(=O)c2cccc(S(=O)(=O)NC3CCC(=O)N(C)C3)c2)ccc1F (centres unmarked) [Compound 180] | 760 nM | 1300 nM | – | – | – | > 25000 nM
Cc1cc(NC(=O)c2cccc(S(=O)(=O)N[C@H](C)c3ccccc3)c2)ccc1F [Compound 166] | 190 nM | 2390 nM | – | – | – | 14600 nM
Cc1cc(NC(=O)c2cccc(S(=O)(=O)NC3CCCC3)c2)ccc1C#N [Compound 16] | 1210 nM | 2800 nM | – | – | – | 10300 nM
Cc1cc(NC(=O)c2cccc(S(=O)(=O)NC(C)Cc3ccccn3)c2)ccc1F (centres unmarked) [Compound 120] | 530 nM | 510 nM | – | – | – | > 25000 nM
Cc1cc(NC(=O)c2cccc(S(=O)(=O)N[C@H]3CCC[C@H]3O)c2)ccc1F [Compound 139] | 1000 nM | 1750 nM | – | – | – | > 25000 nM
Cc1cc(NC(=O)c2cccc(S(=O)(=O)N[C@H]3CCOC3)c2)ccc1F [Compound 72] | 120 nM | 370 nM | – | – | – | > 25000 nM
Cc1ccc(S(=O)(=O)NC2(C)COC2)c(F)c1C(=O)Nc1ccc(F)c(F)c1 [Compound 194] | 380 nM | 310 nM | – | – | – | > 25000 nM
Cc1cc(NC(=O)c2cccc(S(=O)(=O)NC(C)CCN3CCOCC3)c2)ccc1F (centres unmarked) [Compound 165] | 710 nM | 360 nM | – | – | – | > 25000 nM
Cc1cc(NC(=O)c2cccc(S(=O)(=O)N[C@@H]3c4ccccc4C[C@H]3O)c2)ccc1F [Compound 175] | 230 nM | 150 nM | – | – | – | > 25000 nM
Cc1[nH]c(C(=O)Nc2ccccc2)c(C)c1S(=O)(=O)N1CCCCC1 [Compound 62] | 7060 nM | 10100 nM | – | – | – | > 50000 nM
CCC1(NS(=O)(=O)c2cccc(C(=O)Nc3ccc(F)c(C)c3)c2)CC1 [Compound 85] | 50 nM | 380 nM | – | – | – | > 25000 nM
O=C(Nc1ccccc1)c1cncc(S(=O)(=O)NC2CCCCC2)c1 [Compound 68] | 18600 nM | > 25000 nM | – | – | – | 68000 nM
Cc1cc(NC(=O)c2cccc(S(=O)(=O)N[C@@H]3c4ccccc4C[C@@H]3O)c2)ccc1F [Compound 136] | 470 nM | 810 nM | – | – | – | > 25000 nM
O=C(Nc1ccc(C(F)(F)F)cc1)c1cc(S(=O)(=O)NC2CCCC2)ccc1F [Compound 50] | 45900 nM | 15800 nM | – | – | – | 11300 nM
Cc1cc(NC(=O)c2cccc(S(=O)(=O)NC3(C(F)(F)F)CC3)c2)ccc1F [Compound 183] | 80 nM | 840 nM | – | – | – | > 25000 nM
O=C(Nc1ccccc1)c1cc(S(=O)(=O)NC2CCCCC2)ccn1 [Compound 67] | 11100 nM | 18600 nM | – | – | – | > 100000 nM
